Measured values from patent US10766869B2, “Triazoles for the treatment of demyelinating dieases” (Vertex Pharmaceuticals Incorporated, priority 2015, dated 2020).
Where two headings read alike, the source gives them in different places.

Tested on: primary rat mixed cortical cells
Assay: In vitro myelination assay (MBP positive myelin strands, fold myelin pixels above background)
Type: cell-based
Details: Rattus norvegicus; for fold induction at 10 µM: 10.0 μM compound; for fold induction at 1 µM: 1.0 μM compound
Summary of the method: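 Mixed cortical culture, P1 rat, 87,500-95,000 cells/well; compound present from seeding, refreshed days 6 and 10; 14 d, 37 °C, 5% CO2. Day 14: PFA fix, anti-MBP + Hoechst. Read-out: fold MBP myelin pixels over untreated, tested at 1.0 and 10.0 μM.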

[1] = relative to baseline of no added compound, read-out: Fold myelin pixels above background
[2] = read-out: Fold myelin pixels above background relative to baseline of no added compound
[3] = relative to baseline of no added compound, read-out: Fold myelin pixels above background, 1.0 μM
[4] = relative to baseline of no added compound, read-out: Fold myelin pixels above background, 10.0 μM

Cc1cc(Nc2ncn(-c3ccnc(N4CCCCCC4)c3)n2)cc(N2CCN(C)CC2)c1 [Compound 495, 1-[2-(azepan-1-yl)-4-pyridyl]-N-[3-methyl-5-(4-methylpiperazin-1-yl)phenyl]-1,2,4-triazol-3-amine]
fold induction at 10 µM [1]: ≤ 1

Cc1cc(Nc2ncn(-c3cccc(F)c3)n2)cc(C2CCCN(C3COC3)C2)c1 (stereo not drawn) [Compound 411, 1-(3-fluorophenyl)-N-[3-methyl-5-[1-(oxetan-3-yl)-3-piperidyl]phenyl]-1,2,4-triazol-3-amine]
fold induction at 1 µM [1]: 100 to 1000
fold induction at 10 µM [1]: ≤ 1

COCC1CCN(c2cc(C(F)(F)F)cc(Nc3ncn(-c4cc(F)cc(F)c4)n3)n2)CC1 [Compound 839, N-[1-(3,5-difluorophenyl)-1,2,4-triazol-3-yl]-6-[4-(methoxymethyl)-1-piperidyl]-4-(trifluoromethyl)pyridin-2-amine]
fold induction at 1 µM [2]: 1 to 10
fold induction at 10 µM [2]: ≤ 1

COC(=O)N1CCC(c2cc(C)cc(Nc3ncn(-c4ccccc4)n3)c2)CC1 [Compound 12, methyl 4-[3-methyl-5-[(1-phenyl-1,2,4-triazol-3-yl)amino]phenyl]piperidine-1-carboxylate]
fold induction at 1 µM [3]: 100 to 1000
fold induction at 10 µM [4]: 1 to 10

[2H]C1([2H])N(CC)C([2H])([2H])C([2H])([2H])N(c2cc(C)cc(Nc3ncn(-c4cc(F)cc(F)c4)n3)c2)C1([2H])[2H] [Compound 947, 1-(3,5-difluorophenyl)-N-[3-methyl-5-(2,2,3,3,5,5,6,6-octadeuterio-4-ethyl-piperazin-1-yl)phenyl]-1,2,4-triazol-3-amine]
fold induction at 1 µM [2]: 1 to 10
fold induction at 10 µM [2]: ≤ 1

Cc1cc(Nc2ncn(-c3cc(F)cc(F)c3)n2)cc(N2CCN3CCOCC3C2)c1 (stereo not drawn) [Compound 566, N-[3-(3,4,6,7,9,9a-hexahydro-1H-pyrazino[2,1-c][1,4]oxazin-8-yl)-5-methyl-phenyl]-1-(3,5-difluorophenyl)-1,2,4-triazol-3-amine]
fold induction at 1 µM [1]: 100 to 1000
fold induction at 10 µM [1]: 10 to 100

Cc1cc(CN2CCN(C3COC3)CC2)cc(Nc2ncn(-c3cnccn3)n2)c1 [Compound 583, N-[3-methyl-5-[[4-(oxetan-3-yl)piperazin-1-yl]methyl]phenyl]-1-pyrazin-2-yl-1,2,4-triazol-3-amine]
fold induction at 1 µM [1]: 10 to 100
fold induction at 10 µM [1]: 10 to 100

Cc1cc(Nc2ncn(-c3cc(F)cc(F)c3)n2)cc(N2CCOC(COC(C)C)C2)c1 (stereo not drawn) [Compound 927, 1-(3,5-difluorophenyl)-N-[3-[2-(isopropoxymethyl)morpholin-4-yl]-5-methyl-phenyl]-1,2,4-triazol-3-amine]
fold induction at 1 µM [2]: 10 to 100
fold induction at 10 µM [2]: 1 to 10

COCCC1CCN(c2cc(C)cc(Nc3ncn(-c4cc(F)cc(F)c4)n3)n2)CC1 [Compound 855, N-[1-(3,5-difluorophenyl)-1,2,4-triazol-3-yl]-6-[4-(2-methoxyethyl)-1-piperidyl]4-methyl-pyridin-2-amine]
fold induction at 1 µM [2]: 1 to 10
fold induction at 10 µM [2]: 1 to 10

[2H]C1([2H])N(CC2COCCO2)C([2H])([2H])C([2H])([2H])N(c2cc(C)cc(Nc3ncn(-c4cc(F)cc(F)c4)n3)c2)C1([2H])[2H] (stereo not drawn) [Compound 885, 1-(3,5-difluorophenyl)-N-[3-methyl-5-[2,2,3,3,5,5,6,6-octadeuterio-4-(1,4-dioxan-2-ylmethyl)piperazin-1-yl]phenyl]-1,2,4-triazol-3-amine]
fold induction at 1 µM [2]: 10 to 100
fold induction at 10 µM [2]: ≤ 1

Fc1cc(Nc2ncn(-c3cncc(F)c3)n2)cc(N2CCOCC2)c1 [Compound 371, N-(3-fluoro-5-morpholino-phenyl)-1-(5-fluoro-3-pyridyl)-1,2,4-triazol-3-amine]
fold induction at 1 µM [3]: 1 to 10
fold induction at 10 µM [4]: 100 to 1000

Cc1cc(Nc2ncn(-c3cc(F)cc(F)c3)n2)cc(N2CCC(N3CCOCC3)CC2)c1 [Compound 324, 1-(3,5-difluorophenyl)-N-[3-methyl-5-(4-morpholino-1-piperidyl)phenyl]-1,2,4-triazol-3-amine]
fold induction at 1 µM [3]: 1 to 10
fold induction at 10 µM [4]: 10 to 100

Fc1cc(Nc2ncn(-c3cccc(F)c3)n2)cc(N2CCOCC2)c1 [Compound 158, N-(3-fluoro-5-morpholino-phenyl)-1-(3-fluorophenyl)-1,2,4-triazol-3-amine]
fold induction at 1 µM [3]: 10 to 100
fold induction at 10 µM [4]: 100 to 1000

Fc1ccc(-n2cnc(Nc3cc(Cl)nc(N4CCOCC4)c3)n2)cc1F [Compound 100, 2-chloro-N-[1-(3,4-difluorophenyl)-1,2,4-triazol-3-yl]-6-morpholino-pyridin-4-amine]
fold induction at 1 µM [3]: 100 to 1000
fold induction at 10 µM [4]: 100 to 1000

Cc1cc(Nc2ncn(-c3cc(F)cc(F)c3)n2)cc(N2CCOC3(CC3)C2)c1 [Compound 1035, 1-(3,5-difluorophenyl)-N-[3-methyl-5-(4-oxa-7-azaspiro[2.5]octan-7-yl)phenyl]-1,2,4-triazol-3-amine]
fold induction at 1 µM [2]: 1 to 10
fold induction at 10 µM [2]: 1 to 10

Cc1cc(Nc2ncn(-c3cc(F)cc(F)c3)n2)cc(N2CC(N3CC4CCC(C3)O4)C2)c1 [Compound 717, 1-(3,5-difluorophenyl)-N-[3-methyl-5-[3-(8-oxa-3-azabicyclo[3.2.1]octan-3-yl)azetidin-1-yl]phenyl]-1,2,4-triazol-3-amine]
fold induction at 1 µM [1]: 1 to 10
fold induction at 10 µM [1]: 10 to 100

Cc1cc(Nc2ncn(-c3cc(F)cc(F)c3)n2)cc([C@H]2CCN(C3COC3)C[C@@H]2O)c1 (racemic) [Compound 282, (3R,4R)-4-[3-[[1-(3,5-difluorophenyl)-1,2,4-triazol-3-yl]amino]-5-methyl-phenyl]-1-(oxetan-3-yl)piperidin-3-ol; (3S,4S)-4-[3-[[1-(3,5-difluorophenyl)-1,2,4-triazol-3-yl]amino]-5-methyl-phenyl]-1-(oxetan-3-yl)piperidin-3-ol]
fold induction at 1 µM [3]: 10 to 100
fold induction at 10 µM [4]: 10 to 100

Fc1cc(F)cc(-n2cnc(Nc3cc(C4CCOC4)cc(N4CCOCC4)c3)n2)c1 (stereo not drawn) [Compound 456, 1-(3,5-difluorophenyl)-N-(3-morpholino-5-tetrahydrofuran-3-yl-phenyl)-1,2,4-triazol-3-amine]
fold induction at 1 µM [1]: 1000 to 10000
fold induction at 10 µM [1]: 100 to 1000

Cc1cc(Nc2ncn(-c3ccccc3)n2)cc(N2CCN(C3CCOC3)CC2)c1 (stereo not drawn) [Compound 434, N-[3-methyl-5-(4-tetrahydrofuran-3-ylpiperazin-1-yl)phenyl]-1-phenyl-1,2,4-triazol-3-amine]
fold induction at 1 µM [1]: 1000 to 10000
fold induction at 10 µM [1]: 1000 to 10000

Cc1cc(Nc2ncn(-c3cc(F)cc(OC(C)C)c3)n2)cc(N2CCN(C)CC2)c1 [Compound 205, 1-(3-fluoro-5-isopropoxy-phenyl)-N-[3-methyl-5-(4-methylpiperazin-1-yl)phenyl]-1,2,4-triazol-3-amine]
fold induction at 1 µM [3]: 100 to 1000
fold induction at 10 µM [4]: ≤ 1

COCCC1CCN(c2cc(C)cc(Nc3ncn(-c4ccccc4)n3)c2)CC1 [Compound 148, N-[3-[4-(2-methoxyethyl)-1-piperidyl]-5-methyl-phenyl]-1-phenyl-1,2,4-triazol-3-amine]
fold induction at 1 µM [3]: 100 to 1000
fold induction at 10 µM [4]: 100 to 1000

FC(F)c1cccc(-n2cnc(Nc3cc(C(F)(F)F)cc(N4CC(N5CCOCC5)C4)n3)n2)c1 [Compound 636, N-[1-[3-(difluoromethyl)phenyl]-1,2,4-triazol-3-yl]-6-(3-morpholinoazetidin-1-yl)-4-(trifluoromethyl)pyridin-2-amine]
fold induction at 1 µM [1]: 1 to 10
fold induction at 10 µM [1]: 1 to 10

Fc1cc(Nc2ncn(-c3cccc(F)c3)n2)cc(N2CCCC2)c1 [Compound 435, 1-(3-fluorophenyl)-N-(3-fluoro-5-pyrrolidin-1-yl-phenyl)-1,2,4-triazol-3-amine]
fold induction at 1 µM [1]: 100 to 1000
fold induction at 10 µM [1]: 100 to 1000

COCC1CCN(c2cc(C(F)(F)F)cc(Nc3ncn(-c4cccc(C(F)F)c4)n3)n2)CC1 [Compound 807, N-[1-[3-(difluoromethyl)phenyl]-1,2,4-triazol-3-yl]-6-[4-(methoxymethyl)-1-piperidyl]-4-(trifluoromethyl)pyridin-2-amine]
fold induction at 1 µM [2]: 1 to 10
fold induction at 10 µM [2]: 1 to 10

Cc1c(Nc2ncn(-c3ccccn3)n2)cc(N2CC(N3CCOCC3)C2)cc1OC(C)C [Compound 811, N-[3-isopropoxy-2-methyl-5-(3-morpholinoazetidin-1-yl)phenyl]-1-(2-pyridyl)-1,2,4-triazol-3-amine]
fold induction at 1 µM [2]: 1 to 10
fold induction at 10 µM [2]: 10 to 100

Cc1cc(Nc2ncn(-c3cc(F)cc(F)c3)n2)cc(N2CCN(C3CC3)CC2)c1 [Compound 482, N-[3-(4-cyclopropylpiperazin-1-yl)-5-methyl-phenyl]-1-(3,5-difluorophenyl)-1,2,4-triazol-3-amine]
fold induction at 1 µM [1]: 10 to 100
fold induction at 10 µM [1]: 100 to 1000

Cc1cc(Nc2ncn(-c3cc(F)cc(F)c3)n2)cc(C2(C)CN(C3COC3)CCO2)c1 (stereo not drawn) [Compound 708, 1-(3,5-difluorophenyl)-N-[3-methyl-5-[2-methyl-4-(oxetan-3-yl)morpholin-2-yl]phenyl]-1,2,4-triazol-3-amine]
fold induction at 1 µM [1]: 1 to 10
fold induction at 10 µM [1]: ≤ 1

Cc1cc(Nc2ncn(-c3cc(F)cc(F)c3)n2)cc(N2CCC(OC(C)C)CC2)c1 [Compound 1019, 1-(3,5-difluorophenyl)-N-[3-(4-isopropoxy-1-piperidyl)-5-methyl-phenyl]-1,2,4-triazol-3-amine]
fold induction at 1 µM [2]: 1 to 10
fold induction at 10 µM [2]: 10 to 100

Cc1cc(Nc2ncn(-c3cc(F)cc(F)c3)n2)cc(N2CCN(C3CCCC3O)CC2)c1 (stereo not drawn) [Compound 875, 2-[4-[3-[[1-(3,5-difluorophenyl)-1,2,4-triazol-3-yl]amino]-5-methyl-phenyl]piperazin-1-yl]cyclopentanol]
fold induction at 1 µM [2]: 10 to 100
fold induction at 10 µM [2]: ≤ 1
